# Assay results as given in patent US11510896B2, “Antiviral compositions for the treatment of infections linked to coronaviruses” (priority 2016, dated 2022).
# Key:
# [1] = tested on: MERS-CoV strain France-UAE/1612/2013; experiment: microbe, parasite or virus in culture; assay type: cell-based, MERS-CoV coronavirus; conditions: for IC50: Middle East respiratory syndrome-related coronavirus, Vero C1008, 24 h, read-out: IC50 (dose necessary to obtain a 50% viral production inhibition)
# horses = horses versus ruminants; cited from earlier work
SMILES,reduction of the infectious titres with respect to the control ([1]; 6 μM) [%],IC50 [1] [nM],"LD50 in horses, times less than in ruminants (horses) [times]",reduction of the infectious titres with respect to the control ([1]; 12.5 μM) [%]
"CC[C@@]1([C@@H]2O[C@@H]([C@H]3O[C@@](O)(CO)[C@H](C)C[C@@H]3C)C[C@@H]2C)CC[C@H]([C@]2(C)CC[C@]3(C[C@H](O)[C@@H](C)[C@@H]([C@@H](C)[C@@H](OC)[C@H](C)C(=O)O)O3)O2)O1 [monensin, Monensin]",97.8,1250,100,–
"COc1ccc2cc3[n+](cc2c1OC)CCc1cc2c(cc1-3)OCO2 [berberine, Berberine]",–,3800,–,78.4
